Test results taken from patent publication US8983257B2, “Therapeutic light delivery apparatus, method, and system” (Nomir Medical Technologies, Inc., priority 2002, dated 2015).
Values joined by “and” are separate entries in the source; they are usually repeats but may differ in a detail not shown here. Equal entries are not always repeated. “Also recorded” adds a separate entry of the source.

Tests used:
[1] = tested on: MRSA colonization in the nares; test: Human study Part One: nasal colonization of MRSA, NOVEON laser alone, with H2O2 or with topical erythromycin; type: in vivo, Staphylococcus aureus; settings: for MRSA Average: per patient, mean of triplicate plates, all arms with NOVEON laser
Experimental: (§1) This investigational protocol was an open-label study of subjects who are colonized with MRSA in the nares (nostril). The study was done in two parts.
(§2) In this human study, three arms were produced. […] This was done on day 1 and again on day three; and Arm #3: ⅓ of the subjects were treated with the laser and then a topical antibiotic three times a day for five days. Prior to enrollment in this study, prospective subjects met all of the following criteria: age≧18 years and ≦70 years of age; previous positive MRSA culture; negative urine pregnancy test or post-menopausal for one year; willing to comply with study requirements, including return visits and self-application of topical antibiotics; and willing to provide informed consent to participate. Prospective subjects were excluded from this study if any of the following criteria were met: pregnancy; patients who are severely immunocompromised (such as may occur in AIDS, renal transplant regimens, immunosuppressed states consequent to malignancy or agents used in rendering oncologic care, or who suffer from end stage renal disease); diabetic patients; allergy to antimicrobials being used in the study (group 3).
(§3) All participants underwent an initial quantitative assessment for nasal carriage of S. aureus, during their first visit. Each participant had the anterior nares (each nostril) sampled for culture with a circular movement (three rotations on each side) of a sterile wood applicator plain Rayon® tipped swab in each nostril and placed in a labeled tube. 2 ml of room temp phosphate buffered saline was placed in the tube after the removal of the swab (to completely cover the swab in the tube). Each swab was then placed back in the tube and the tube was then vortexed for 15 seconds to disperse isolates of MRSA and/or MSSA into the PBS solution. Aliquots of PBS from the tube were plated in the following manner: 100 μl from each tube was lawn plated in triplicate (3×) on selective Chromogenic MRSA And MSSA agar. Plates were placed in incubator within 30 minutes of the plating procedure, and colonies were counted manually, and recorded 18 hrs after plating.
(§4) On day one of the study, all subjects underwent this exact procedure in arms 1 and 2 of the study two minutes before the laser procedure. They again were sampled in the same manner 2 minutes after the laser procedure. In the third arm of the study, they were swabbed two minutes before the procedure and the first antibiotic administration was completed after the laser therapy. The post/laser swab sample was taken for this arm 20 min later.
(§5) On day three of the study, all subjects from arms one two and three underwent the exact same procedures as day 1 of the study.
(§6) On day five all subjects from all arms underwent just one swabbing per nostril with the exact same sampling procedure one time.
(§7) 3% OTC hydrogen peroxide was applied to a cotton pledget for application to the subject prior to irradiation. This was inserted in the nose for 120 seconds and then removed. The subjects were then given doses of phototherapeutic near infrared radiation as described.
(§8) The subjects were first given doses of phototherapeutic near infrared radiation as described. […] The swab was inserted approximately 1 cm in to the anterior nares and rotated 360 degrees several times and removed. Patients were instructed to perform the exact application procedure 3 times a day for the remaining 5 days.
(§9) The NOVEON™ laser was used for two (2) six-minute treatments in each nostril on day (1) and day (3) of the study.
(§10) The laser was calibrated before the first treatment of the day. Intermittent temperature testing of the treatment site was performed on each subject using a noncontact infrared thermometer (Raytek Minitemp), 30-60 second intervals. If a temperature of 110 F degrees was reached, or the patient complained of pain, the laser treatment was interrupted and only resumed when the patient was comfortable.

[2] = tested on: MSSA colonies in the nares; test: Human study Part One: nasal colonization of MSSA, NOVEON laser alone, with H2O2 or with topical erythromycin; type: in vivo, Staphylococcus aureus; settings: per patient, mean of triplicate plates, all arms with NOVEON laser
Experimental: as §1, §2, §3, §4, §5, §6, §7, §8, §9, §10

MRSA [3] = test: MRSA CFU counts on agar with trimethoprim or erythromycin after sub-lethal NIMELS laser (Example VIII); type: cell-based, Staphylococcus aureus; settings: plates B-4 1 to 5
Text: The following illustrates the general antibacterial methods according to the invention, using a MRSA model for the in vitro Experiments V and VIII-XII.
a) μ1 is sub-lethal dosimetry from the NIMEL laser system on MRSA as a control and;

MRSA [4] = test: MRSA/antimicrobial potentiation Experiment 4: CFU with or without methicillin, penicillin G or erythromycin, groups A4 to F4; type: cell-based, Staphylococcus aureus; settings: for Laser Effect (+Drug): ratio of AVG Exp with drug to Cont with drug; for Drug Effect / Fold increase in antibiotic sensitivity: 0.5 μg/ml penicillin G; for Drug Effect: ratio of AVG with drug to without drug; for AVG (CFU) / CFU/ml / CFU: agar with 0.5 μg/ml penicillin G
Experimental: Two different laser dosages based on an effective dose established in previous experiments were used to treat a saline-suspension of logarithmically growing MRSA, labeled A4 to F4.
After 24 hrs of growth at 37° C. colonies were counted.

[5] = Initial Analysis, Post-treatment swab, left nostril
[6] = Initial Analysis, Post-treatment swab, right nostril
[7] = Initial Analysis, Pre swab, left nostril
[8] = Initial Analysis, Pre swab, right nostril
[9] = Second Analysis, Post-treatment swab, left nostril
[10] = Second Analysis, Post-treatment swab, right nostril
[11] = Second Analysis, Pre swab, left nostril
[12] = Second Analysis, Pre swab, right nostril
[13] = Third Analysis, Swab, left nostril
[14] = Third Analysis, Swab, right nostril

OO [H2O2, hydrogen peroxide]
outcome of the Laser plus H2O2 arm (in words) ([1]; human subjects, 3% hydrogen peroxide in the nose for 120 seconds, then laser, day 1 and day 3): may have had some transient benefit in some of the patients, but no obvious long-term efficacy

OO [Peroxide]
MRSA Average [1, 5]: 0 CFU (2×) and 22 CFU and 1 CFU | MRSA Average [1, 6]: 0 CFU (2×) and 455 CFU and 2752 CFU | MRSA Average [1, 7]: 0 CFU (2×) and 63 CFU and 4 CFU | MRSA Average [1, 8]: 0 CFU (2×) and 30 CFU and 4032 CFU | MRSA Average [1, 9]: 0 CFU (3×) and 12 CFU | MRSA Average [1, 10]: 0 CFU (2×) and 114 CFU and 3347 CFU | MRSA Average [1, 11]: 0 CFU (2×) and 180 CFU and 17 CFU | MRSA Average [1, 12]: 0 CFU (2×) and 90 CFU and 3099 CFU | MRSA Average [1, 13]: 0 CFU (3×) and 827 CFU | MRSA Average [1, 14]: 0 CFU (2×) and 563 CFU and 3648 CFU | s. aureus Average [2, 5]: 0 CFU (2×) and 20 CFU and 1 CFU | s. aureus Average [2, 6]: 0 CFU and 506 CFU and 146 CFU and 3272 CFU | s. aureus Average [2, 7]: 1 CFU and 53 CFU and 17 CFU and 124 CFU | s. aureus Average [2, 8]: 0 CFU and 29 CFU and 285 CFU and 3996 CFU | s. aureus Average [2, 9]: 0 CFU (3×) and 10 CFU | s. aureus Average [2, 10]: 0 CFU and 126 CFU and 5 CFU and 3589 CFU | s. aureus Average [2, 11]: 1 CFU and 206 CFU and 4 CFU and 12 CFU | s. aureus Average [2, 12]: 1 CFU and 94 CFU and 257 CFU and 4373 CFU | s. aureus Average [2, 13]: 1 CFU and 868 CFU and 28 CFU and 0 CFU | s. aureus Average [2, 14]: 1 CFU and 586 CFU and 52 CFU and 3493 CFU

COc1cc(Cc2cnc(N)nc2N)cc(OC)c1OC [Trimethoprim]
MRSA colony count, CONTROL (no laser), trimeth 2 ug/ml (MRSA [3]; no laser, agar with trimethoprim 2 ug/ml): 145 and 213 and 198 and 240 and 220 | MRSA colony count, EXPERIMENTAL, trimeth 2 ug/ml (MRSA [3]; sub-lethal NIMELS laser, then plated on agar with trimethoprim 2 ug/ml): 100 and 110

Penicillin
Laser Effect (+Drug) (MRSA [4]; Group C4, 0.5 μg/ml penicillin G): 0.28 | Drug Effect (MRSA [4]; Group C4, Cont (no laser)): 0.75 | AVG (CFU) (MRSA [4]; Group C4, Cont (no laser)): 108.4 CFU | CFU/ml (MRSA [4]; Group C4, Cont (no laser)): 3.25E+08 CFU/ml | CFU (MRSA [4]; Group C4, Cont (no laser), replicate plates 1-5, 24 hrs 37° C.): 106 CFU and 99 CFU and 102 CFU and 113 CFU and 122 CFU | Drug Effect (MRSA [4]; Group C4, Exp (laser treated)): 0.34 | AVG (CFU) (MRSA [4]; Group C4, Exp (laser treated)): 30.4 CFU | CFU/ml (MRSA [4]; Group C4, Exp (laser treated)): 9.12E+07 CFU/ml | CFU (MRSA [4]; Group C4, Exp (laser treated), replicate plates 1-5): 25 CFU and 33 CFU (2×) and 19 CFU and 42 CFU | Laser Effect (+Drug) (MRSA [4]; Group D4, 0.5 μg/ml penicillin G): 0.18 | Drug Effect (MRSA [4]; Group D4, Cont (no laser)): 1.07 | AVG (CFU) (MRSA [4]; Group D4, Cont (no laser)): 132.8 CFU | CFU/ml (MRSA [4]; Group D4, Cont (no laser)): 3.98E+08 CFU/ml | CFU (MRSA [4]; Group D4, Cont (no laser), replicate plates 1-5, 24 hrs 37° C.): 101 CFU and 111 CFU and 138 CFU and 132 CFU and 182 CFU | Drug Effect (MRSA [4]; Group D4, Exp (laser treated)): 0.31 | AVG (CFU) (MRSA [4]; Group D4, Exp (laser treated)): 23.8 CFU | CFU/ml (MRSA [4]; Group D4, Exp (laser treated)): 7.14E+07 CFU/ml | CFU (MRSA [4]; Group D4, Exp (laser treated), replicate plates 1-5): 14 CFU and 23 CFU and 22 CFU and 29 CFU and 31 CFU | Fold increase in antibiotic sensitivity (MRSA [4]; grouping C4): 2.21 | Fold increase in antibiotic sensitivity (MRSA [4]; grouping D4): 3.45 | synergy or potentiation with NIMELS in growth inhibition of MRSA colonies (in words) (MRSA [4]; sub-lethal NIMELS dosimetry, bar chart figure): synergistic effects; also recorded: potentiated by sub-lethal NIMELS dosimetry | reversal of MRSA resistance in vitro by dual wavelength NOVEON laser (in words) (MRSA [4]; temperature levels not lethal to the organism): successful reversal of MRSA resistance
